Here are results for 1 compound from patent US11654136B2, “Phosphoinositide 3-kinase inhibitor with a zinc binding moiety” (Curis, Inc., priority 2011, dated 2023).

The test has as its system MM1S human MM xenograft. The test is described as follows: Combination with lenalidomide in the MM1S xenograft model. Type of test: in vivo, SCID/Beige mice. The note with it: 75 mg/Kg PO Qd (Mon-Fri); 17 days; single agent. The protocol:
Female SCID/Beige mice at age 4 weeks were housed in ventilated micro-isolator cages (INNOCAGE®IVC, Innovive Inc., San Diego, Calif.) in a controlled climate, fed with sterile high-fat diet (Problab-RMH 2000) ad libitum and provided with sterilized water. All housing and supplies for SCID/Beige mice were sterilized by autoclaving before use. Mice were inspected daily including weekends/holidays by trained animal facility personnel and investigators. All animal procedures were performed under sterile conditions within a biosafety cabinet (for injections) or laminar flow hood (for animal husbandry and non-invasive procedures).
Cryopreserved MM1S human MM cells were thawed in a 37° C. water bath and cultured in RPMI medium plus 10% Fetal Bovine Serum (FBS) in a tissue culture incubator at 5% CO2. […] The implanted mice were monitored for general health and tumor development daily.
Tumors were detectable about two weeks following implantation. Tumor size was measured with a caliper. […]
During each animal study, tumors were measured with calipers, tumor size determined using the above mentioned formula, and tumor size changes in percentage calculated. Mouse body weights were measured with a scale twice per week. […] T/C values were calculated using the following formula: % T/C=100×ΔT/ΔC if ΔT>0. […]

Each structure is given as a SMILES string.

As to `COc1ccc(-c2nc(N3CCOCC3)c3sc(CN(C)c4ncc(C(=O)NO)cn4)cc3n2)cn1` [Compound 1, N-hydroxy-2-(((2-(6-methoxypyridin-3-yl)-4-morpholinothieno[3,2-d]pyrimidin-6-yl)methyl)(methyl)amino)pyrimidine-5-carboxamide], the Tumor growth result is given as “more effective than Lenalidomide at either 12.5 or 25 mg/Kg PO as single agents”.
